Data as given in paper PMC12673148, “Structural basis of protease-activated receptor 2 activation and biased agonism” (Cell Discovery, 2025).
Read-outs that look alike come from different tables or passages of the source.

Tests used:
[1] = system: PAR2; settings: cited from earlier work; for PAR2 activation: synthetic peptides mimicking the TL
Source text: We used the N-terminal deletion construct of PAR2 (Δ1–48) as the backbone of the receptor to support downstream signaling, as it has lower intrinsic activity than the FL receptor does (Supplementary Fig. S1a).

[2] = system: PAR2; settings: cited from earlier work
[3] = system: PAR2; settings: cited from earlier work; remark: listed apart in the source
[4] = system: PAR2 (Gq signaling); test: NanoBiT G protein dissociation assay, Gq; assay type: cell-based, human; settings: mean ± SD
Description: (§1) Ligand-induced G protein activation was measured by a NanoBiT G protein dissociation assay, as described previously[11],[41]. Briefly, AD293 cells cultured in 6-well plates were transfected with plasmids encoding a large fragment (LgBiT)-containing Gαq or Gα13 subunit (100 ng), a small fragment (SmBiT)-fused Gβ1 subunit (500 ng), and the untagged Gγ2 subunit with a C68S mutation (500 ng) in combination with the WT PAR2 construct (200 ng). After being incubated for 1 day, the transfected cells were collected, pelleted by centrifugation, and suspended in HBSS containing 0.01% bovine serum albumin (Solarbio) and 5 mM HEPES (pH 7.4; assay buffer). The cell suspension was dispensed in white 96-well plates at a volume of 80 μL per well and mixed with 20 μL of 50 μM coelenterazine native (BIOSTNTH). After incubation for 2 h at RT, the baseline luminescence was measured, after which 20 μL of test compound (6×) was added, and subsequent luminescence measurements were performed to detect ligand-induced changes. Luminescence intensity measured from 3 min to 5 min after compound addition was normalized to the initial intensity, and the net luminescence was calculated by subtracting the luminescence ratio of the vehicle control from the normalized luminescence per well. The G protein dissociation signals were fitted to a four-parameter sigmoidal concentration–response curve (GraphPad Prism 8).

[5] = system: PAR2 (G13 signaling); test: NanoBiT G protein dissociation assay, G13; assay type: cell-based, human; settings: mean ± SD
Description: as §1

[6] = system: PAR2 (G13 signaling); test: BRET0 assay, tricistronic G13 sensor, ligand-induced; assay type: cell-based, human
Description: (§2) To measure the self-activation of WT and mutant PAR2 in response to G protein activity, a tricistronic activity sensor assay was performed as previously described. The G protein sensor plasmids were obtained from Addgene (https://addgene.org/Gunnar_Schulte/). To measure constitutive activity, AD293 cells in 6-well plates were cotransfected with 500 ng of WT or mutant PAR2 and 500 ng of the G protein sensor construct (pcDNA-Gα-Nluc/Gβ3/cpVenus-Gγ9 fusion combination) with Lipofectamine 2000 (Invitrogen). After being incubated for 24 h at 37 °C in a 5% CO2 atmosphere, the transfected cells were seeded into white 96-well plates and grown for another 24 h. The cells were subsequently washed with HBSS and incubated with a 1:1000 dilution of furimazine stock solution. After incubation for 3 min at 37 °C, the BRET ratio was measured twice consecutively to assess constitutive receptor activity using an EnVision multimode plate reader (PerkinElmer). Nluc emission intensity was selected using a 450/40-nm monochromator, and cpVenus^173 emission was selected using a 535/30-nm monochromator with an integration time of 0.3 s in both channels. The ratio of cpVenus/Nluc intensity was calculated for each well and normalized to that of the vehicle control.
(§3) For ligand-induced BRET0 measurements, transfected cells were plated in 96-well plates for 24 h, after which the cells were washed with HBSS and incubated with a 1:1000 dilution of furimazine stock solution. After being incubated for 3 min at 37 °C, the cells were treated with the addition of ligand solutions or vehicle control. Plates were then subjected to BRET measurements with an EnVision plate reader (PerkinElmer) at 450/40-nm (Nluc-furimazine) and 535/30-nm to detect ligand-induced changes in the BRET signal. Like in the BRET2 assay, the BRET signal was calculated by the ratio of the intensity at 535 nm (cpVenus) to that at 450 nm (Nluc), and the Δnet BRET ratio was calculated by subtracting the intensity of the vehicle control from that of each experimental well. […]

[7] = system: PAR2 (Gq signaling); test: BRET0 assay, tricistronic Gq sensor, ligand-induced; assay type: cell-based, human
Description: as §2, §3

[8] = system: PAR2 (Gq signaling); test: BRET2 Gq dissociation assay; assay type: cell-based, human
Description: (§4) In accordance with previous methods, AD293 cells were plated in 6-well plates at 700,000–800,000 cells per well. After 1 day of growth at 37 °C with 5% CO2, the cells in each well were transfected with 100 ng of pcDNA3-PAR2 (Δ1–48) WT or mutants, 100 ng of Gα-RLuc8, 100 ng of Gβ, and 100 ng of Gγ-green fluorescent protein (Gγ-GFP) plasmids with Lipofectamine 2000 (Thermo Fisher Scientific). After being incubated for 1 day, the cells were collected, pelleted by centrifugation, and suspended in DMEM supplemented with 5% (v/v) FBS. The cell suspensions were dispensed in white 96-well plates at a density of 25,000–50,000 cells per well. One day after being plated, the growth medium was carefully aspirated and replaced immediately with 60 μL of 1× Hank’s balanced salt solution (HBSS) containing 20 mM HEPES (pH 7.4; assay buffer), followed by the addition of 10 μL of freshly prepared 50 μM coelenterazine 400a (Yeasen). After a 5-min equilibration period, the cells were treated with 30 μL of drug for an additional 5 min. The plates were then measured in an EnVision plate reader (PerkinElmer) with 395 nm (RLuc8-coelenterazine 400a) and 510 nm (GFP2) emission filters with integration times of 1 s. The BRET signal was calculated by the ratio of the luminescence intensity at 510 nm (GFP) to that at 395 nm (RLuc), and the Δnet BRET ratio was calculated by subtracting the luminescence intensity of the vehicle control from that of each experimental well (510 nm/395 nm). The data were subsequently plotted as a four-parameter sigmoidal concentration–response curve in GraphPad Prism 8.

[9] = system: PAR2 (G13 signaling); test: BRET2 G13 dissociation assay; assay type: cell-based, human
Description: as §4

[10] = system: PAR2 (Gs signaling); test: BRET0 assay, Gs sensor, ligand-induced; assay type: cell-based, human; settings: AD293 cells, full-length (FL) PAR2, Fig. S1b
Description: as §2, with “The cells were subsequently washed with HBSS and incubated with a 1:1000 dilution of furimazine stock solution.” left out, “Nluc emission intensity was selected using a 450/40-nm monochromator, and cpVenus^173 emission was selected using a 535/30-nm monochromator with an integration time of 0.3 s in both channels.” left out
(§5) For ligand-induced BRET0 measurements, transfected cells were plated in 96-well plates for 24 h, after which the cells were washed with HBSS and incubated with a 1:1000 dilution of furimazine stock solution. […] Plates were then subjected to BRET measurements with an EnVision plate reader (PerkinElmer) at 450/40-nm (Nluc-furimazine) and 535/30-nm to detect ligand-induced changes in the BRET signal. […]

[11] = system: PAR2 (Gs signaling); settings: full-length (FL) PAR2; cited from earlier work
Source text: To mimic trypsin cleavage of PAR2 between R36 and S37, we removed residues 2–36 of PAR2 and allowed native methionine aminopeptidase (MAP) to remove the N-terminal methionine residue via a process termed N-terminal methionine processing that occurs naturally across prokaryotes and eukaryotes. We employed a bioluminescence resonance energy transfer (BRET) assay consisting of G protein-based tricistronic activity sensors (BRET0)[17] to quantitatively assess the constitutive activity of GPCR. This approach allowed us to measure the intrinsic activity of the PAR2 constructs. Compared with the ...

[12] = system: PAR2 (Gi signaling); test: BRET0 assay, Gi sensor, ligand-induced; assay type: cell-based, human; settings: AD293 cells, full-length (FL) PAR2, Fig. S1b
Description: as §2, with “The cells were subsequently washed with HBSS and incubated with a 1:1000 dilution of furimazine stock solution.” left out, “Nluc emission intensity was selected using a 450/40-nm monochromator, and cpVenus^173 emission was selected using a 535/30-nm monochromator with an integration time of 0.3 s in both channels.” left out
as §5

[13] = PAR2 D62A, AD293 cells, n = 3, Fig. S5a
[14] = PAR2 (Δ1–48) D62A, AD293 cells, mean ± SD, n = 3, Fig. 5b
[15] = BRET0, AD293 cells, mean ± SD, n = 3, Fig. S5b
[16] = PAR2 (Δ1–48) WT, AD293 cells, mean ± SD, n = 3, Fig. 5g
[17] = summary statement, assay not named (BRET2, BRET0, NanoBiT used)
[18] = AD293 cells, full-length (FL) PAR2, Fig. S1b

CC[C@H](C)[C@H](NC(=O)[C@H](CC1CCCCC1)NC(=O)c1ccno1)C(=O)N1CCC2(C=Cc3ccccc32)CC1 [GB88]
PAR2 agonism [1]: partial PAR2 agonist

2f-LAAAAI-NH2 [DF253]
PAR2-mediated Ca2+ release [2]: trigger PAR2-mediated Ca^2+ release | ERK1/2 phosphorylation [3]: without inducing ERK1/2 phosphorylation

SLIGKV-NH2 [human tethered-ligand synthetic peptide]
PAR2 activation [1]: activating the receptor independently of protease cleavage

SLIGRL-NH2 [mouse tethered-ligand peptide used as synthetic WT peptide]
Gq versus G13 bias, D62A mutant [4, 13]: clearly biased toward Gq signaling | G13 activity, D62A mutant [5, 13]: minimal G13 activity | G13 activity, D62A mutant ([6]; PAR2 D62A, AD293 cells, mean ± SD, n = 3, Fig. S5a): minimal G13 activity | inducing activity versus human ligand SLIGKV-NH2 [1]: much higher inducing activity than the human ligand | PAR2 activation [1]: activating the receptor independently of protease cleavage | Gq versus G13 bias, D62A mutant ([7]; PAR2 D62A, AD293 cells, BRET0, mean ± SD, n = 3, Fig. S5a): clearly biased toward Gq signaling | Gq activity, D62A mutant [8, 14]: only had a minor effect on Gq activity | G13 activity, D62A mutant [9, 14]: almost completely abolished G13 activity | G13 receptor activity, D228A mutant ([9]; PAR2 (Δ1–48) D228A, AD293 cells, mean ± SD, n = 3, Fig. 2c): strongly decreased receptor activity | G13 receptor activity, H227A mutant ([9]; PAR2 (Δ1–48) H227A, AD293 cells, mean ± SD, n = 3, Fig. S3h): decreased receptor activity | G13 receptor activity, H310A mutant ([9]; PAR2 (Δ1–48) H310A, AD293 cells, mean ± SD, n = 3, Fig. 2c): strongly decreased receptor activity | G13 receptor activity, L230A mutant ([9]; PAR2 (Δ1–48) L230A, AD293 cells, mean ± SD, n = 3, Fig. 2c): strongly decreased receptor activity | G13 receptor activity, P231A mutant ([9]; PAR2 (Δ1–48) P231A, AD293 cells, mean ± SD, n = 3, Fig. 2c): strongly decreased receptor activity | G13 receptor activity, V229A mutant ([9]; PAR2 (Δ1–48) V229A, AD293 cells, mean ± SD, n = 3, Fig. S3h): decreased receptor activity | G13 receptor activity, Y311A mutant ([9]; PAR2 (Δ1–48) Y311A, AD293 cells, mean ± SD, n = 3, Fig. 2c): strongly decreased receptor activity | G13 receptor activity, Y323A mutant ([9]; PAR2 (Δ1–48) Y323A, AD293 cells, mean ± SD, n = 3, Fig. 2c): strongly decreased receptor activity

SLVGRL-NH2 [synthetic peptide with valine at third TL residue; Gq-biased ligand]
Gq versus G13 bias ([4]; WT PAR2, AD293 cells, n = 3, Fig. S5b): strong bias toward Gq signaling | G13 activity ([5]; NanoBiT, WT PAR2, AD293 cells, n = 3, Fig. S5b): minimal G13 activity | G13 activity [6, 15]: minimal G13 activity | Gq versus G13 bias [7, 15]: strong bias toward Gq signaling | Gq activity relative to WT peptide [8, 16]: maintained most of the Gq activity of the WT peptide | Gq signaling (discussion summary) [8, 17]: predominantly activates Gq signaling | G13 activity relative to WT peptide [9, 16]: lost most of the G13 activity | G13 signaling (discussion summary) [9, 17]: minimal effect on G13 signaling

Isox-Cha-Chg-Chg-A-R-NH2 [AY254]
ERK1/2 phosphorylation [3]: ERK-biased agonist

SLAGRL-NH2
efficacy [1]: significantly lower efficacy

SLIGKV [SLIGKV (TL), tethered ligand peptide of human PAR2]
G13 signaling activation [6, 18]: activated | Gs signaling activation [10]: had no effect on Gs signaling | Gs signaling induction [11]: incapable of inducing Gs signaling | Gq signaling activation [7, 18]: activated | Gi signaling activation [12]: activated

C/C(=N\NC(=O)[C@H]1C(=O)NC[C@@H]1c1ccccc1)c1cccc(Br)c1 [AC264613]
PAR2 agonism ([1]; reference not given): potent PAR2-selective agonist

2-furoyl-LIGRL-NH2
PAR2 activation [1]: activating the receptor independently of protease cleavage

B1: NE: neutrophil elastase, protease cleaving PAR2 between S67↓V68 (protein, UniProt P08246 30-267, looked up)
Neutrophil elastase: IVGGRRARPHAWPFMVSLQLRGGHFCGATLIAPNFVMSAAHCVANVNVRAVRVVLGAHNLSRREPTRQVFAVQRIFENGYDPVNLLNDIVILQLNGSATINANVQVAQLPAQGRRLGNGVQCLAMGWGLLGRNRGIASVLQELNVTVVTSLCRRSNVCTLVRGRQAGVCFGDSGSPLVCNGLIHGIASFVRGGCASGLYPDAFAPVAQFVNWIDSIIQRSEDNPCPHPRDPDPASRTH
Ca2+ release on PAR2 cleavage ([2]; cleavage at E56↓T57 (CS) or S67↓V68 (NE)): not Ca^2+ release | ERK1/2 activation on PAR2 cleavage ([3]; cleavage at S67↓V68): activates ERK1/2
